Consider 65 compounds from patent US20030055065A1, “Tricyclic amide and urea compounds useful for inhibition of G-protein function and for treatment of proliferative diseases” (priority 1993, published 2003).

Values joined by “and” are separate entries in the source; they are usually repeats but may differ in a detail not shown here. Identical values can stand only once. Like-named read-outs stand apart in the source and are kept apart here.

The test concerns the target T1, farnesyl protein transferase (FPT), partially purified from rat brain (Rattus norvegicus, UniProt Q02293+Q04631).
T1 construct: were partially purified from rat brain by ammonium sulfate fractionation followed by Q-Sepharose
Briefly: Inhibition of farnesyl protein transferase (transfer of [3H]farnesyl to Ras-CVLS). Type of test: biochemical. Conditions: for IC50: read-out: FPT IC50. On the procedure:
1. In vitro enzyme assays: Inhibition of farnesyl protein transferase and geranylgeranyl protein transferase.
Human farnesyl protein transferase was also expressed in E. coli, using cDNA clones encoding both the α and β subunits. […] Human farnesyl protein transferase was partially-purified from the soluble protein fraction of E. coli as described above. […] Two forms of val^12-Ha-Ras protein were prepared as substrates for these enzymes, differing in their carboxy terminal sequence. One form terminated in cysteine-valine-leucine-serine (Ras-CVLS) the other in cystein-valine-leucine-leucine (Ras-CVLL). Ras-CVLS is a substrate for the farnesyl protein transferase while Ras-CVLL is a substrate for geranylgeranyl protein transferase I. The cDNAs encoding these proteins were constructed so that the proteins contain an amino-terminal extension of 6 histidine residues. Both proteins were expressed in Escherichia coli and purified using metal chelate affinity chromatography. The radiolabelled isoprenyl pyrophosphate substrates, [^3H]farnesyl pyrophosphate and [3H]geranylgeranyl pyrophosphate, were purchased from DuPont/New England Nuclear.
The reaction was allowed to proceed for 30 minutes at room temperature and then stopped with 0.5 ml of 4% sodium dodecyl sulfate (SDS) followed by 0.5 ml of cold 30% trichloracetic acid (TCA). Samples were allowed to sit on ice for 45 minutes and precipitated Ras protein was then collected on GF/C filter paper mats using a Brandel cell harvester. […] Percent inhibition was calculated relative to the DMSO vehicle control.

[1] abbreviates: Ras-CVLS farnesylation, partially purified rat brain FPT.

T1 sequence (Q02293 whole entry, one chain of several): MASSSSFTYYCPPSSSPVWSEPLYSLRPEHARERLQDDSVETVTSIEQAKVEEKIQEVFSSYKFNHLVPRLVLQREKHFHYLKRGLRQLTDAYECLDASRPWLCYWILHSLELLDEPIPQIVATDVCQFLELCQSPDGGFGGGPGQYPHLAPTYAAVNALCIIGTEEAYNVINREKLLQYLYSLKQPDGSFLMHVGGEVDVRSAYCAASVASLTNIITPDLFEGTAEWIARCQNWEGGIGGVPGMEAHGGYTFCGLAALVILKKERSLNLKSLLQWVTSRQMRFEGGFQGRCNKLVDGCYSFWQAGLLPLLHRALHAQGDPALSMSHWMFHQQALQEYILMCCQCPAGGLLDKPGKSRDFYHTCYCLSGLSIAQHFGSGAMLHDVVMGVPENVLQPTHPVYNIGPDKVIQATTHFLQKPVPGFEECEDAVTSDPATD

A word on the IC50: it is the concentration that gives 50% inhibition. Regarding `O=C(Nc1cccnc1)N1CCN([C@@H]2c3ccc(Cl)cc3CCc3cccnc32)CC1` [224 (6.10)], the IC50 under setting [1] was determined as 3.2 µM.
As for `CN1CCC(CC(=O)N2CCN(C3c4ccc(Cl)cc4CCc4cc(Br)cnc43)CC2)CC1` (centres unmarked) [425-O (5.126)], the IC50 (enzyme inhibition) was 0.17 µM and 0.14 µM and 0.122 µM and 0.118 µM and 0.178 µM.
Take `O=C(Cc1ccncc1)N1CCC(=C2c3ccncc3CCc3cc(Cl)ccc32)CC1` [Example 5.39]: under setting [1], the IC50 was found to be 2.3 µM.
On the same count and under the same terms, as for `C#CC(=O)N1CCC(=C2c3ccc(Cl)cc3CCc3cccnc32)CC1` [Example 9], the figure is 4 µM; as for `COC(=O)c1ccc(C(=O)N2CCC(=C3c4ccc(Cl)cc4CCc4cccnc43)CC2)cc1` [Example 13], 4.5 µM.
Still for that read-out and setting: as for `O=C(c1ccnnc1)N1CCC(=C2c3ccc(Cl)cc3CCc3cccnc32)CC1` [Example 14], the figure is 4.6 µM; as for `O=C(c1cc[nH]c1)N1CCC(=C2c3ccc(Cl)cc3CCc3cccnc32)CC1` [Example 16], 4.8 µM; as for `CN(C)c1ccc(C(=O)N2CCC(=C3c4ccc(Cl)cc4CCc4cccnc43)CC2)cc1` [Example 17], 4.8 µM.
Take `O=C(c1cn[nH]c1)N1CCC(=C2c3ccc(Cl)cc3CCc3cccnc32)CC1` [Example 18]: the IC50 under setting [1] turned out to be 4.9 µM.
Consider `O=C(C1CCCO1)N1CCC(=C2c3ccc(Cl)cc3CCc3cccnc32)CC1` (centres unmarked) [Example 19A], for which the IC50 under setting [1] was 5.1 µM.
As for `Cc1ccc2c(O)c(C(=O)N3CCC(=C4c5ccc(Cl)cc5CCc5cccnc54)CC3)cnc2n1` [Example 20], the IC50 under setting [1] came to 5.2 µM.
`Nc1ccc(C(=O)N2CCC(=C3c4ccc(Cl)cc4CCc4cccnc43)CC2)cc1` [Example 21]: the IC50 under setting [1] came out at 5.9 µM.
For `COc1cc(C(=O)N2CCC(=C3c4ccc(Cl)cc4CCc4cccnc43)CC2)cc(OC)c1O` [Example 24], the IC50 under setting [1] is 6.2 µM.
Still for that read-out and setting: as for `O=C(c1cc[nH]c(=O)c1)N1CCC(=C2c3ccc(Cl)cc3CCc3cccnc32)CC1` [Example 25], the figure is 6.25 µM.
On the same count and under the same terms, to `O=C(c1cccnc1)N1CCC(=C2c3ccc(Cl)cc3CCc3cccnc32)CC1` [Example 26] belongs 6.3 µM; to `O=C(c1cnccn1)N1CCC(=C2c3ccc(Cl)cc3CCc3cccnc32)CC1` [Example 27], 7.3 µM; to `O=C(c1ccnc(Cl)c1)N1CCC(=C2c3ccc(Cl)cc3CCc3cccnc32)CC1` [Example 28], 7.3 µM.
Still for that read-out and setting: as for `O=C(c1ccccn1)N1CCC(=C2c3ccc(Cl)cc3CCc3cccnc32)CC1` [Example 29], the figure is 8 µM; as for `O=C(c1c[nH]c2ccccc12)N1CCC(=C2c3ccc(Cl)cc3CCc3cccnc32)CC1` [Example 30], 5.7 µM; as for `O=C(c1cc([N+](=O)[O-])c(O)c([N+](=O)[O-])c1)N1CCC(=C2c3ccc(Cl)cc3CCc3cccnc32)CC1` [Example 31], 8.3 µM.
As for `O=C(c1cncc2ccccc12)N1CCC(=C2c3ccc(Cl)cc3CCc3cccnc32)CC1` [Example 32], the IC50 under setting [1] came to 8.7 µM.
As to `O=C(c1cnc(O)nc1O)N1CCC(=C2c3ccc(Cl)cc3CCc3cccnc32)CC1` [Example 33], under setting [1], the IC50 amounted to 8.7 µM.
Still for that read-out and setting: to `O=C(c1cc[n+]([O-])c2ccccc12)N1CCC(=C2c3ccc(Cl)cc3CCc3cccnc32)CC1` [Example 34] belongs 9.8 µM; to `Cn1cc(C(=O)N2CCC(=C3c4ccc(Cl)cc4CCc4cccnc43)CC2)ccc1=O` [Example 36], 11.2 µM; to `Cc1cc(C(=O)N2CCC(=C3c4ccc(Cl)cc4CCc4cccnc43)CC2)cc(Cl)[n+]1[O-]` [Example 37], 11.4 µM.
Same read-out and setting: as for `O=C(c1ccnc2ccccc12)N1CCC(=C2c3ccc(Cl)cc3CCc3cccnc32)CC1` [Example 38], the figure is 12.1 µM; as for `O=C1CCC(C(=O)N2CCC(=C3c4ccc(Cl)cc4CCc4cccnc43)CC2)O1` (centres unmarked) [Example 39], 13.4 µM.
In turn, `O=C(c1cc2ccccc2[nH]1)N1CCC(=C2c3ccc(Cl)cc3CCc3cccnc32)CC1` [Example 40] yielded an FPT inhibition (at 13 μM) of 44% at 13 μM.
Consider `O=C(c1ccco1)N1CCC(=C2c3ccc(Cl)cc3CCc3cccnc32)CC1` [Example 52], for which the IC50 under setting [1] came to 4.9 µM.
On the same count and under the same terms, to `O=C(c1ccccc1)N1CCC(=C2c3ccc(Cl)cc3CCc3cccnc32)CC1` [Example 54] belongs 5.3 µM.
On the same count and under the same terms, to `O=C(c1ccoc1)N1CCC(=C2c3ccc(Cl)cc3CCc3cccnc32)CC1` [Example 55] belongs 5.9 µM; to `CCOC(=O)C(=O)N1CCC(=C2c3ccc(Cl)cc3CCc3cccnc32)CC1` [Example 56], 7.9 µM; to `CC(C)(C)CC(=O)N1CCC(=C2c3ccc(Cl)cc3CCc3cccnc32)CC1` [Example 57], 9.8 µM.
`COCC(=O)N1CCC(=C2c3ccc(Cl)cc3CCc3cccnc32)CC1` [Example 58]: the IC50 under setting [1] amounted to 14.4 µM.
On to `CC(=O)N1CCC(=C2c3ccc(Cl)cc3CCc3cccnc32)CC1` [Example 59], for which the IC50 under setting [1] came out at 26.9 µM.
Still for that read-out and setting: to `CC(=O)N1CCC(=C2c3ccc(Cl)cc3CCc3cc(Cl)cnc32)CC1` [Example 62] belongs 7.8 µM.
Where the note is “at 16.4 μM”, `CC(=O)N1CCC(=C2c3ccc(Cl)cc3CCc3ccc(C)nc32)CC1` [Example 63] had an FPT inhibition of 1% at 16.4 μM.
Take `CC(=O)N1CCC(=C2c3ccc(Cl)cc3CCc3cc(C)cnc32)CC1` [Example 64]: the IC50 under setting [1] was determined as 10.6 µM.
Under “at 50 μM”, `CC(=O)N1CCC(=C2c3ccc(Cl)cc3CCc3cc(C(C)(C)C)cnc32)CC1` [Example 66] showed an FPT inhibition of 22% at 50 μM.
As for `CC(=O)N1CCC(=C2c3cc4ccccc4cc3CCc3cccnc32)CC1` [Example 71A], the IC50 under setting [1] is 17.6 µM.
For the compound `CC(=O)N1CCC(=C2c3cc(Cl)c(Cl)cc3CCc3cccnc32)CC1` [Example 71C], the FPT inhibition (at 15.5 μM) amounted to 38% at 15.5 μM.
In the case of `CC(=O)N1CCC(=C2c3ccc(Cl)cc3CCc3ccc[n+]([O-])c32)CC1` [Example 73], the FPT inhibition (at 15.6 μM) was 27% at 15.6 μM.
Compound `COc1cc[n+]([O-])c2c1CCc1cc(Cl)ccc1C2=C1CCN(C(C)=O)CC1` [Example 74A] had an FPT inhibition (at 14.2 μM) of 25% at 14.2 μM.
As to `CC(=O)N1CCC(=C2c3ccc(Cl)cc3CCc3cc(Br)c[n+]([O-])c32)CC1` [Example 74B], under setting [1], the IC50 worked out at 4 µM.
Still for that read-out and setting: as for `CC(=O)N1CCC(=C2c3ccc(Cl)cc3CCc3c(Cl)cc[n+]([O-])c32)CC1` [Example 74C], the figure is 11.6 µM.
Regarding `CNS(=O)(=O)c1ccc(C(=O)N2CCC(=C3c4ccc(Cl)cc4CCc4cccnc43)CC2)cc1` [Example 92], the IC50 under setting [1] is 3.9 µM.
The same measure, in the same setting: to `O=C(/C=C/c1ccncc1)N1CCC(=C2c3ccc(Cl)cc3CCc3cccnc32)CC1` [Example 99] belongs 4.4 µM; to `O=C(C1CCNCC1)N1CCC(=C2c3ccc(Cl)cc3CCc3cccnc32)CC1` [Example 100], 4.5 µM.
Same read-out and setting: as for `O=C(N[C@@H]1C[C@H]1c1ccccc1)N1CCC(=C2c3ccc(Cl)cc3CCc3cccnc32)CC1` [Example 101], the figure is 4.6 µM.
Still for that read-out and setting: to `O=C(Cc1cccs1)N1CCC(=C2c3ccc(Cl)cc3CCc3cccnc32)CC1` [Example 102] belongs 4.6 µM; to `O=C(C1CCSCC1)N1CCC(=C2c3ccc(Cl)cc3CCc3cccnc32)CC1` [Example 103], 4.6 µM; to `O=C(C1CCC(=NO)CC1)N1CCC(=C2c3ccc(Cl)cc3CCc3cccnc32)CC1` (centres unmarked) [Example 104], 4.7 µM.
Take `NC1CCC(C(=O)N2CCC(=C3c4ccc(Cl)cc4CCc4cccnc43)CC2)CC1` (centres unmarked) [Example 105]: the IC50 under setting [1] is 5 µM.
With `O=C(O)c1ccc(C(=O)N2CCC(=C3c4ccc(Cl)cc4CCc4cccnc43)CC2)cc1` [Example 106], the IC50 under setting [1] was found to be 5.3 µM.
On the same count and under the same terms, as for `CSc1ccc(C(=O)N2CCC(=C3c4ccc(Cl)cc4CCc4cccnc43)CC2)cc1` [Example 108], the figure is 6.9 µM; as for `CNc1ccc(C(=O)N2CCC(=C3c4ccc(Cl)cc4CCc4cccnc43)CC2)cn1` [Example 109], 7.2 µM.
Same read-out and setting: as for `CN(C)c1cc(C(=O)N2CCC(=C3c4ccc(Cl)cc4CCc4cccnc43)CC2)ccn1` [Example 110], the figure is 8.3 µM; as for `O=C(c1ccc(NS(=O)(=O)C(F)(F)F)cc1)N1CCC(=C2c3ccc(Cl)cc3CCc3cccnc32)CC1` [Example 111], 8.5 µM; as for `CC(C)(C)OC(=O)NCC(=O)N1CCC(=C2c3ccc(Cl)cc3CCc3cccnc32)CC1` [Example 112], 8.8 µM.
Turning to `CC(=O)N(C)CCC(=O)N1CCC(=C2c3ccc(Cl)cc3CCc3cccnc32)CC1` [Example 113], the IC50 under setting [1] is 10.3 µM.
Same read-out and setting: as for `O=C(c1cccnc1O)N1CCC(=C2c3ccc(Cl)cc3CCc3cccnc32)CC1` [Example 114], the figure is 11.1 µM; as for `C=CC(=O)N1CCC(=C2c3ccc(Cl)cc3CCc3cccnc32)CC1` [Example 115], 14.2 µM.
On the same count and under the same terms, as for `CC(O)C(=O)N1CCC(=C2c3ccc(Cl)cc3CCc3cccnc32)CC1` (centres unmarked) [Example 116], the figure is 15.7 µM.
For the compound `NCC(=O)N1CCC(=C2c3ccc(Cl)cc3CCc3cccnc32)CC1` [Example 118], the IC50 under setting [1] amounted to 22.3 µM.
`COc1cc(C(=O)N2CCC(=C3c4ccc(Cl)cc4CCc4cccnc43)CC2)cc(OC)c1OC` [Example 119] gave an FPT inhibition (at 11 μM) of 41% at 11 μM.
